≈ marks a conversion by molar mass, not a printed value. Where two headings read alike, the source gives them in different places.
Assays:
[1] = test system: S. aureus clinical isolates; assay: microbe, parasite or virus in culture; assay type: cell-based; conditions: Staphylococcus aureus, read-out: MIC
[2] = test system: human hERG potassium ion channel
Procedure: Inhibition of the human hERG cardiac K+ ion channel was determined by Eurofins Panlabs (St. Charles, MO, USA) by using QPatch automated whole-cell patch-clamp electrophysiology, as described previously. […] During measurements, after whole-cell patch configuration was achieved, the cells were held at −80 mV. Next, a 500-millisecond pulse to −40 mV was delivered to measure the leaking current, which was then subtracted from the tail current’s readout. Then the cell was depolarized to +40 mV for 500 milliseconds and then to −80 mV over a 100-millisecond ramp to elicit the hERG tail current. This workflow was repeated once in every 8 seconds to monitor the current amplitude. The parameters measured during each test were the maximum tail current evoked on stepping to 40 mV and ramping back to −80 mV from the test pulse. All data were filtered for seal quality, seal drop, and current amplitude. The peak current amplitude was calculated before and after compound addition, and the amount of inhibition was assessed by dividing the test compound’s current amplitude by the control’s current amplitude. During our tests, the control was the mean hERG current amplitude collected 15 seconds at the end of each measurement, and the test compound was the mean hERG current amplitude collected in the presence of test compound at the given concentration.

For `Cc1[nH]c(C(=O)Nc2nc3ccc(C(=O)O)cc3s2)c(Cl)c1Cl` [ULD1], the MIC ([1]; MRSA, S. aureus IHMA 1611612, MRSA / VSSA) was 0.5 µg/mL (≈ 1.35 µM), the MIC ([1]; MRSA, S. aureus IHMA 1612228, MRSA / VSSA) was 0.5 µg/mL (≈ 1.35 µM) and the MIC ([1]; MRSA, S. aureus IHMA 1620441, MRSA / VSSA) was 0.5 µg/mL (≈ 1.35 µM). For the same compound, the MIC ([1]; MRSA, S. aureus IHMA 1621638, MRSA / VSSA) was 1 µg/mL (≈ 2.7 µM), the MIC ([1]; MRSA, S. aureus IHMA 1622252, MRSA / VSSA) was 1 µg/mL (≈ 2.7 µM) and the MIC ([1]; MRSA, S. aureus IHMA 1622527, MRSA / VSSA) was 0.25 µg/mL (≈ 0.675 µM). For the same compound, the MIC ([1]; MRSA, S. aureus IHMA 1666371, MRSA / VSSA) was 0.5 µg/mL (≈ 1.35 µM), the MIC ([1]; MRSA, S. aureus IHMA 1695391, MRSA / VSSA) was 0.25 µg/mL (≈ 0.675 µM) and the MIC ([1]; MRSA, S. aureus IHMA 1703428, MRSA / VSSA) was 1 µg/mL (≈ 2.7 µM). For the same compound, the MIC ([1]; MRSA, S. aureus IHMA 1720350, MRSA / VSSA) was 1 µg/mL (≈ 2.7 µM), the MIC ([1]; MRSA, S. aureus IHMA 1732989, MRSA / VSSA) was 1 µg/mL (≈ 2.7 µM) and the MIC ([1]; MRSA, S. aureus IHMA 1742231, MRSA / VSSA) was 0.5 µg/mL (≈ 1.35 µM). It also gave an MIC ([1]; MRSA, S. aureus IHMA 1766357, MRSA / VSSA) of 0.25 µg/mL (≈ 0.675 µM), an MIC ([1]; MSSA / NRS 12 / VISA, S. aureus IHMA 1308244, NRS12, MSSA / VISA) of 1 µg/mL (≈ 2.7 µM) and an MIC ([1]; MSSA / NRS 13 / VISA, S. aureus IHMA 1308245, NRS13, MSSA / VISA) of 1 µg/mL (≈ 2.7 µM). For the same compound, the MIC ([1]; MSSA / NRS 14 / VISA, S. aureus IHMA 1308246, NRS14, MSSA / VISA) was 1 µg/mL (≈ 2.7 µM), the MIC ([1]; MSSA / NRS 17 / VISA, S. aureus IHMA 1308247, NRS17, MSSA / VISA) was 1 µg/mL (≈ 2.7 µM) and the MIC ([1]; MSSA / NRS 28 / VISA, S. aureus IHMA 1308249, NRS28, MSSA / VISA) was 1 µg/mL (≈ 2.7 µM). It also gave an MIC ([1]; MSSA / NRS 52, S. aureus IHMA 1308252, NRS52, MSSA / VSSA* (*Expected VAN intermediate, confirmed VAN susceptible twice), test date 2018-11-07) of 0.12 µg/mL (≈ 0.324 µM), an MIC ([1]; MSSA / USA100 / VRSA, S. aureus IHMA 672236, VRS6, MSSA / VRSA, USA100) of 0.25 µg/mL (≈ 0.675 µM) and an MIC ([1]; MSSA, S. aureus IHMA 1563826, MSSA / VSSA) of 0.5 µg/mL (≈ 1.35 µM). For the same compound, the MIC ([1]; MSSA, S. aureus IHMA 1565492, MSSA / VSSA) was 0.25 µg/mL (≈ 0.675 µM), the MIC ([1]; MSSA, S. aureus IHMA 1569499, MSSA / VSSA) was 1 µg/mL (≈ 2.7 µM) and the MIC ([1]; MSSA, S. aureus IHMA 1569754, MSSA / VSSA) was 0.25 µg/mL (≈ 0.675 µM). For the same compound, the MIC ([1]; MSSA, S. aureus IHMA 1574202, MSSA / VSSA) was 0.5 µg/mL (≈ 1.35 µM), the MIC ([1]; MSSA, S. aureus IHMA 1575652, MSSA / VSSA) was 0.5 µg/mL (≈ 1.35 µM) and the MIC ([1]; MSSA, S. aureus IHMA 1575779, MSSA / VSSA) was 1 µg/mL (≈ 2.7 µM). For the same compound, the MIC ([1]; MSSA, S. aureus IHMA 1576329, MSSA / VSSA) was 1 µg/mL (≈ 2.7 µM), the MIC ([1]; MSSA, S. aureus IHMA 1577800, MSSA / VSSA) was 0.5 µg/mL (≈ 1.35 µM) and the MIC ([1]; MSSA, S. aureus IHMA 1578560, MSSA / VSSA) was 1 µg/mL (≈ 2.7 µM). For the same compound, the MIC ([1]; MSSA, S. aureus IHMA 1580233, MSSA / VSSA) was 0.25 µg/mL (≈ 0.675 µM), the MIC ([1]; MSSA, S. aureus IHMA 1580925, MSSA / VSSA) was 0.25 µg/mL (≈ 0.675 µM) and the MIC ([1]; MSSA, S. aureus IHMA 1580955, MSSA / VSSA) was 1 µg/mL (≈ 2.7 µM). The MIC ([1]; MSSA, S. aureus IHMA 1582586, MSSA / VSSA) was 1 µg/mL (≈ 2.7 µM), the MIC ([1]; MSSA, S. aureus IHMA 1582691, MSSA / VSSA) was 0.25 µg/mL (≈ 0.675 µM) and the MIC ([1]; MSSA, S. aureus IHMA 1584230, MSSA / VSSA) was 1 µg/mL (≈ 2.7 µM). For the same compound, the MIC ([1]; MSSA, S. aureus IHMA 1587279, MSSA / VSSA) was 0.5 µg/mL (≈ 1.35 µM), the MIC ([1]; MSSA, S. aureus IHMA 1591459, MSSA / VSSA) was 0.5 µg/mL (≈ 1.35 µM) and the MIC ([1]; MSSA, S. aureus IHMA 1592749, MSSA / VSSA) was 1 µg/mL (≈ 2.7 µM). It also gave an MIC ([1]; MSSA, S. aureus IHMA 1592751, MSSA / VSSA) of 0.5 µg/mL (≈ 1.35 µM), an MIC ([1]; MSSA, S. aureus IHMA 1594297, MSSA / VSSA) of 1 µg/mL (≈ 2.7 µM) and an MIC ([1]; MSSA, S. aureus IHMA 1597120, MSSA / VSSA) of 1 µg/mL (≈ 2.7 µM). It also gave an MIC ([1]; MSSA, S. aureus IHMA 1597125, MSSA / VSSA) of 1 µg/mL (≈ 2.7 µM), an MIC ([1]; MSSA, S. aureus IHMA 1599157, MSSA / VSSA) of 1 µg/mL (≈ 2.7 µM) and an MIC ([1]; MSSA, S. aureus IHMA 1599506, MSSA / VSSA) of 0.12 µg/mL (≈ 0.324 µM). It also gave an MIC ([1]; MSSA, S. aureus IHMA 1602078, MSSA / VSSA) of 0.5 µg/mL (≈ 1.35 µM), an MIC ([1]; MSSA, S. aureus IHMA 1604586, MSSA / VSSA) of 0.5 µg/mL (≈ 1.35 µM) and an MIC ([1]; MSSA, S. aureus IHMA 1604609, MSSA / VSSA) of 0.5 µg/mL (≈ 1.35 µM). It also gave an MIC ([1]; MSSA, S. aureus IHMA 1609919, MSSA / VSSA) of 0.5 µg/mL (≈ 1.35 µM), an MIC ([1]; MSSA, S. aureus IHMA 1622864, MSSA / VSSA) of 0.5 µg/mL (≈ 1.35 µM) and an MIC ([1]; MSSA, S. aureus IHMA 1626392, MSSA / VSSA) of 1 µg/mL (≈ 2.7 µM). The MIC ([1]; MSSA, S. aureus IHMA 1713793, MSSA / VSSA) was 1 µg/mL (≈ 2.7 µM), the “inhibitory effect on human hERG ion channels” value ([2]; 150 μM, in words) was “No statistically significant inhibitory effect” and the “Significant (hERG inhibition)” value ([2]; hERG, 150 µM) was “No (Only results showing an inhibition higher than 50% are considered to represent significant effects of the tested compounds)”. For the same compound, the “Normalized inhibition (%)” value ([2]; hERG, 150 µM, n = 8) was 5.5%.
